# Biological target: T1, human ferroportin (Homo sapiens, UniProt Q9NP59)
# T1 construct: luciferase reporter (probably NanoLuc: read with the Nano-Glo Luciferase Assay System); expressed in transfected cells; host or cells: CHO cells, stably transfected, doxycycline-inducible expression
# T1 sequence (Q9NP59 1-571): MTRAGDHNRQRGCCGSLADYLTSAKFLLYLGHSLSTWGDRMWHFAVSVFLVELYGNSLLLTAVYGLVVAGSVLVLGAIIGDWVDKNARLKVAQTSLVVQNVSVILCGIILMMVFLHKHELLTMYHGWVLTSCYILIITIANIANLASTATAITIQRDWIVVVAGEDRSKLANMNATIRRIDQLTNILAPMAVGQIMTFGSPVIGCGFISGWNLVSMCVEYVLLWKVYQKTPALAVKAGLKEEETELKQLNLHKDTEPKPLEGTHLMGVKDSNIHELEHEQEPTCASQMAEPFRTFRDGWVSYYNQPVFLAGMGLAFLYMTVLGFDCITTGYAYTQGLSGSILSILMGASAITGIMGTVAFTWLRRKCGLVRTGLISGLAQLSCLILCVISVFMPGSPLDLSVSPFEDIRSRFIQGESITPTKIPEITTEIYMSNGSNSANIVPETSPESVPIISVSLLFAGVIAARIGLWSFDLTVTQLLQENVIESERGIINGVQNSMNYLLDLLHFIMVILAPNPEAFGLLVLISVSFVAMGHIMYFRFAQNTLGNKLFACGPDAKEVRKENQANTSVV
# Assay: In-vitro ferroportin internalization assay (luciferase reporter)
# Assay type: cell-based
# Settings: average pEC50; stably-transfected CHO cell line expressing human ferroportin tagged to a luciferase reporter; 6 h incubation with test compounds
# Description: The protocol for this assay is generally as described in WO2018/128828, incorporated herein by reference in its entirety. Functional internalization of ferroportin protein was measured using a stably-transfected CHO cell line expressing the human ferroportin tagged to a luciferase reporter. Cells were plated for 24 h in the presence of ferric ammonium citrate (FAC). Ferroportin protein expression was induced with doxycycline for 24 h. The next day, the compounds were added. Test compounds were dissolved in DMSO. Cells were incubated with the test compounds for 6 h, and subsequently luciferase activity was measured using the Nano-Glo Luciferase Assay System and Glomax (Promega, Madison, Wis.).
# The average pEC50 was determined for the test compounds.
row,SMILES,pEC50
1,"Fc1cccnc1CNc1nccc2oc([C@H](F)CNCCc3nc4ccccc4[nH]3)nc12 [Compound 74, 2-[(1R)-2-{[2-(1H-1,3-benzodiazol-2-yl)ethyl]amino}-1-fluoroethyl]-N-[(3-fluoropyridin-2-yl)methyl]-[1,3]oxazolo[4,5-c]pyridin-4-amine]",6.9
2,"C[C@H](Cc1nc2c(NCc3ncccc3F)ncnc2s1)NCCc1nc2ccccc2[nH]1 [Compound 26, 2-[(2R)-2-{[2-(1H-1,3-benzodiazol-2-yl)ethyl]amino}propyl]-N-[(3-fluoropyridin-2-yl)methyl]-[1,3]thiazolo[5,4-d]pyrimidin-7-amine]",6.5
3,"[N-]=[N+]=Nc1cccnc1CNc1ncnc2sc(CCNCCc3nc4ccccc4[nH]3)nc12 [Compound 17, N-[(3-azidopyridin-2-yl)methyl]-2-(2-{[2-(1H-1,3-benzodiazol-2-yl)ethyl]amino}ethyl)-[1,3]thiazolo[5,4-d]pyrimidin-7-amine]",7.7
4,"Oc1nc(NCc2ncccc2F)c2nc(CCNCCc3nc4ccccc4[nH]3)sc2n1 [Compound 23, 2-(2-{[2-(1H-1,3-benzodiazol-2-yl)ethyl]amino}ethyl)-7-{[(3-fluoropyridin-2-yl)methyl]amino}-[1,3]thiazolo[5,4-d]pyrimidin-5-ol]",8.8
5,"CC(CNCCc1nc2c(NCc3ncccc3F)nccc2o1)c1nc2ccccc2[nH]1 (stereo not drawn) [Compound 61, 2-(2-{[2-(1H-1,3-benzodiazol-2-yl)propyl]amino}ethyl)-N-[(3-fluoropyridin-2-yl)methyl]-[1,3]oxazolo[4,5-c]pyridin-4-amine]",6.9
6,"Oc1ccccc1CCNCCc1nc2c(NCc3ncccc3F)ncnc2s1 [Compound 44, 2-(2-{[2-(7-{[(3-fluoropyridin-2-yl)methyl]amino}-[1,3]thiazolo[5,4-d]pyrimidin-2-yl)ethyl]amino}ethyl)phenol]",4.9
7,"Fc1cccnc1CNc1ncnc2sc(CCNCCc3ncc(-c4ccncc4)[nH]3)nc12 [Compound 79, N-[(3-fluoropyridin-2-yl)methyl]-2-[2-({2-[5-(pyridin-4-yl)-1H-imidazol-2-yl]ethyl}amino)ethyl]-[1,3]thiazolo[5,4-d]pyrimidin-7-amine]",<5
8,"Fc1cccnc1CNc1ncnc2sc(CCNCc3nc(-c4ccccc4)c[nH]3)nc12 [Compound 49, N-[(3-fluoropyridin-2-yl)methyl]-2-(2-{[(4-phenyl-1H-imidazol-2-yl)methyl]amino}ethyl)-[1,3]thiazolo[5,4-d]pyrimidin-7-amine]",6.9
9,"CC(NCCc1nc2c(NCc3ncccc3F)ncnc2s1)c1ccccc1O (stereo not drawn) [Compound 38, 2-(1-{[2-(7-{[(3-fluoropyridin-2-yl)methyl]amino}-[1,3]thiazolo[5,4-d]pyrimidin-2-yl)ethyl]amino}ethyl)phenol]",4.9
10,"Fc1cccnc1CNc1ncnc2sc(CCNCCc3nc4ccccc4[nH]3)nc12 [Compound 1, 2-(2-{[2-(1H-1,3-benzodiazol-2-yl)ethyl]amino}ethyl)-N-[(3-fluoropyridin-2-yl)methyl]-[1,3]thiazolo[5,4-d]pyrimidin-7-amine]",7.8
11,"C#CCCC1(CCC(=O)NCc2ccc3[nH]c(CCNCCc4nc5c(NCc6ncccc6F)ncnc5s4)nc3c2)N=N1 [Compound 39, 3-[3-(but-3-yn-1-yl)-3H-diazirin-3-yl]-N-{[2-(2-{[2-(7-{[(3-fluoropyridin-2-yl)methyl]amino}-[1,3]thiazolo[5,4-d]pyrimidin-2-yl)ethyl]amino}ethyl)-1H-1,3-benzodiazol-5-yl]methyl}propanamide]",6.9
12,"Fc1cccnc1CNc1ncnc2sc(CCNCCc3nc4ncccc4[nH]3)nc12 [Compound 33, N-[(3-fluoropyridin-2-yl)methyl]-2-{2-[(2-{1H-imidazo[4,5-b]pyridin-2-yl}ethyl)amino]ethyl}-[1,3]thiazolo[5,4-d]pyrimidin-7-amine]",6.2
13,"Clc1cccnc1CNc1ncnc2sc(CCNCCc3nc4ccccc4[nH]3)nc12 [Compound 6, 2-(2-{[2-(1H-1,3-benzodiazol-2-yl)ethyl]amino}ethyl)-N-[(3-chloropyridin-2-yl)methyl]-[1,3]thiazolo[5,4-d]pyrimidin-7-amine]",7.8
14,"Fc1cccnc1CNc1ncnc2sc(CCNCCc3ncc[nH]3)nc12 [Compound 42, N-[(3-fluoropyridin-2-yl)methyl]-2-(2-{[2-(1H-imidazol-2-yl)ethyl]amino}ethyl)-[1,3]thiazolo[5,4-d]pyrimidin-7-amine]",7.3
15,"C#CCCC1(CCC(=O)Nc2ccc3[nH]c(CCNCCc4nc5c(NCc6ncccc6F)ncnc5s4)nc3c2)N=N1 [Compound 22, 3-[3-(but-3-yn-1-yl)-3H-diazirin-3-yl]-N-[2-(2-{[2-(7-{[(3-fluoropyridin-2-yl)methyl]amino}-[1,3]thiazolo[5,4-d]pyrimidin-2-yl)ethyl]amino}ethyl)-1H-1,3-benzodiazol-5-yl]propanamide]",6.5
16,"Fc1cccnc1CNc1ncnc2sc(CCNCCc3nc4c(F)cccc4[nH]3)nc12 [Compound 15, 2-(2-{[2-(4-fluoro-1H-1,3-benzodiazol-2-yl)ethyl]amino}ethyl)-N-[(3-fluoropyridin-2-yl)methyl]-[1,3]thiazolo[5,4-d]pyrimidin-7-amine]",6.8
17,"Fc1cccnc1CNc1nccc2oc(CCNCCc3ncc(-c4ccccc4)[nH]3)nc12 [Compound 48, N-[(3-fluoropyridin-2-yl)methyl]-2-(2-{[2-(5-phenyl-1H-imidazol-2-yl)ethyl]amino}ethyl)-[1,3]oxazolo[4,5-c]pyridin-4-amine]",7
18,"Cc1cc2nc(CCNCCc3nc4c(NCc5ncccc5F)ncnc4s3)[nH]c2cc1C [Compound 46, 2-(2-{[2-(5,6-dimethyl-1H-1,3-benzodiazol-2-yl)ethyl]amino}ethyl)-N-[(3-fluoropyridin-2-yl)methyl]-[1,3]thiazolo[5,4-d]pyrimidin-7-amine]",7.1
19,"Fc1cccnc1CNc1ncnc2sc(CCNCCc3ncc(C4CC4)[nH]3)nc12 [Compound 51, 2-(2-{[2-(5-cyclopropyl-1H-imidazol-2-yl)ethyl]amino}ethyl)-N-[(3-fluoropyridin-2-yl)methyl]-[1,3]thiazolo[5,4-d]pyrimidin-7-amine]",8.2
20,"Fc1cccnc1CNc1ncnc2sc(CCNCCc3ncc(-c4ccccn4)[nH]3)nc12 [Compound 65, N-[(3-fluoropyridin-2-yl)methyl]-2-[2-({2-[5-(pyridin-2-yl)-1H-imidazol-2-yl]ethyl}amino)ethyl]-[1,3]thiazolo[5,4-d]pyrimidin-7-amine]",6.2
21,"Cc1nc(CCNCCc2nc3c(NCc4ncccc4F)ncnc3s2)[nH]c1C [Compound 55, 2-(2-{[2-(4,5-dimethyl-1H-imidazol-2-yl)ethyl]amino}ethyl)-N-[(3-fluoropyridin-2-yl)methyl]-[1,3]thiazolo[5,4-d]pyrimidin-7-amine]",7.6
22,"CC(=O)NOc1nc(NCc2ncccc2F)c2nc(CCNCCc3nc4ccccc4[nH]3)sc2n1 [Compound 29, N-{[2-(2-{[2-(1H-1,3-benzodiazol-2-yl)ethyl]amino}ethyl)-7-{[(3-fluoropyridin-2-yl)methyl]amino}-[1,3]thiazolo[5,4-d]pyrimidin-5-yl]oxy}acetamide]",5.2
23,"CC(Cc1nc2ccccc2[nH]1)NCCc1nc2c(NCc3ncccc3F)ncnc2s1 (stereo not drawn) [Compound 40, 2-(2-{[1-(1H-1,3-benzodiazol-2-yl)propan-2-yl]amino}ethyl)-N-[(3-fluoropyridin-2-yl)methyl]-[1,3]thiazolo[5,4-d]pyrimidin-7-amine]",6.2
24,"COc1nc(NCc2ncccc2F)c2nc(CCNCCc3nc4ccccc4[nH]3)sc2n1 [Compound 18, 2-(2-{[2-(1H-1,3-benzodiazol-2-yl)ethyl]amino}ethyl)-N-[(3-fluoropyridin-2-yl)methyl]-5-methoxy-[1,3]thiazolo[5,4-d]pyrimidin-7-amine]",5.7
25,"Cc1nc(-c2ccc(Cl)s2)c(CNCCc2nc3c(NCc4ncccc4F)ncnc3s2)[nH]1 [Compound 70, 2-[2-({[4-(5-chlorothiophen-2-yl)-2-methyl-1H-imidazol-5-yl]methyl}amino)ethyl]-N-[(3-fluoropyridin-2-yl)methyl]-[1,3]thiazolo[5,4-d]pyrimidin-7-amine]",5.6
26,"Cc1cnc(CCNCCc2nc3c(NCc4ncccc4F)nccc3o2)[nH]1 [Compound 56, N-[(3-fluoropyridin-2-yl)methyl]-2-(2-{[2-(5-methyl-1H-imidazol-2-yl)ethyl]amino}ethyl)-[1,3]oxazolo[4,5-c]pyridin-4-amine]",6.7
27,"Fc1cccnc1CNc1ncnc2sc(C3CN(CCc4nc5ccccc5[nH]4)C3)nc12 [Compound 20, 2-{1-[2-(1H-1,3-benzodiazol-2-yl)ethyl]azetidin-3-yl}-N-[(3-fluoropyridin-2-yl)methyl]-[1,3]thiazolo[5,4-d]pyrimidin-7-amine]",7.5
